Experimental data from patent US10000476B2, “Pyridone derivative, pharmaceutical containing the same and methods of use thereof” (KAKEN PHARMACEUTICAL CO., LTD., priority 2011, dated 2018).

Assays:
Format in all cases: biochemical
TACE = TACE (Homo sapiens (Human), UniProt P78536); test: TACE inhibition test (in vitro); details: fluorescent synthetic substrate, 37° C., 1.5 hours
Summary of the method: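 Recombinant enzyme (cDNA from THP-1 cells, expressed in mammalian or insect cells) with quenched substrate Nma-Leu-Ala-Gln-Ala-Val-Arg-Ser-Ser-Lys(Dnp)-D-Arg-NH2. Incubated 1.5 h at 37 °C; fluorescence read at ex 355/em 460 nm; IC50 from inhibition rate.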

human MMP-2 = human MMP-2 (Homo sapiens (Human), UniProt P08253); test: MMP-2 inhibition test; details: read-out: MMPs IC50 MMP-2
human MMP-2, sequence (P08253 110-660): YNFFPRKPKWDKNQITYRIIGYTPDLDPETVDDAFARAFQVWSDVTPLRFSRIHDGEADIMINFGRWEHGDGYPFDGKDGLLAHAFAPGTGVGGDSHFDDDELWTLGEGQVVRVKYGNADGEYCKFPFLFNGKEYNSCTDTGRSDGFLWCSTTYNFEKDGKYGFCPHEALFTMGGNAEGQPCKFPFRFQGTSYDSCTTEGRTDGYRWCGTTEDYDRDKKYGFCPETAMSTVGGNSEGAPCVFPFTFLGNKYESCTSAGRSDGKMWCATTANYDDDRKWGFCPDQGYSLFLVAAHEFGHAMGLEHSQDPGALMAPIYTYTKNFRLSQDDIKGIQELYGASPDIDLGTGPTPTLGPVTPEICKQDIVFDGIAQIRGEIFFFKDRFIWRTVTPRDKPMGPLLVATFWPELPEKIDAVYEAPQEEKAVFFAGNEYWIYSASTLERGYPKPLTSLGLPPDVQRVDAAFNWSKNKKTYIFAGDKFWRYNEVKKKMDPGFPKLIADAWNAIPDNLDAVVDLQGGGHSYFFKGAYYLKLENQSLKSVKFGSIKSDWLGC
Protocol: (§1) MMP inhibition tests can be carried out, for example, using a fluorescent synthetic substrate based on the methods described in Bickett et al. (D. Mark Bickett et al., Anal. Biochem., 1993, 212, 58-64) and Nagase et al. (H. Nagase et al., J. Biol. Chem., 1994, 269, 20952-20957). The method for each MMP inhibition test is shown below.
(§2) 90 μL (5 ng) of human MMP-2 (Calbiochem #444213) was mixed with 10 μL of 10 mM APMA, and activated by reacting at 37° C. for 1 hour. 10 μL of the resultant enzyme solution was diluted to 90 μL with an assay buffer A. The mixture was added to 90 μL of a 20 μM fluorescent substrate (MOCAc((7-methoxycoumarin-4-yl)acetyl)-Pro-Leu-Gly-Leu-A2pr(Dnp)-Ala-Arg-NH2, Peptide Institute Inc., #3163-v) (SEQ ID NO: 3) prepared with an assay buffer B, and reacted at 37° C. for 5 hours. Enzyme activity was then determined by measuring with a fluorescence intensity meter (Labsystems, Fluoroskan Ascent) at an excitation wavelength of 320 nm and a measurement wavelength of 405 nm.
(§3) From the enzyme activity in the presence or the absence of the test substance, the inhibition rate was determined, and the 50% inhibitiory concentration (IC50) of the test substance was calculated.

human MMP-3 = human MMP-3 (Homo sapiens (Human), UniProt P08254); test: MMP-3 inhibition test; details: read-out: MMPs IC50 MMP-3
human MMP-3, sequence (P08254 100-272): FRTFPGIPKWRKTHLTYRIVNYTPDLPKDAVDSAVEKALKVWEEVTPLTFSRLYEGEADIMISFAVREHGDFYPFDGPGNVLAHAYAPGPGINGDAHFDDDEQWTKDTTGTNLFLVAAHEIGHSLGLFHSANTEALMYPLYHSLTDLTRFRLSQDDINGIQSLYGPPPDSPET
Protocol: as §1
90 μL (1.5 ng) of human MMP-3 (Calbiochem #444217) prepared with an assay buffer A was added to 90 μL of a 20 μM fluorescent substrate NFF-3 (MOCAc((7-methoxycoumarin-4-yl)acetyl)-Arg-Pro-Lys-Pro-Val-Glu-Nva-Trp-Arg-Lys(Dnp)-NH2, Peptide Institute Inc., #3168-v) (SEQ ID NO: 4) prepared with an assay buffer B, and reacted at 37° C. for 4 hours. Enzyme activity was then determined by measuring with a fluorescence intensity meter (Labsystems, Fluoroskan Ascent) at an excitation wavelength of 320 nm and a measurement wavelength of 405 nm.
as §3

human MMP-8 = human MMP-8 (Homo sapiens (Human), UniProt P22894); test: MMP-8 inhibition test; details: read-out: MMPs IC50 MMP-8
human MMP-8, sequence (P22894 101-467): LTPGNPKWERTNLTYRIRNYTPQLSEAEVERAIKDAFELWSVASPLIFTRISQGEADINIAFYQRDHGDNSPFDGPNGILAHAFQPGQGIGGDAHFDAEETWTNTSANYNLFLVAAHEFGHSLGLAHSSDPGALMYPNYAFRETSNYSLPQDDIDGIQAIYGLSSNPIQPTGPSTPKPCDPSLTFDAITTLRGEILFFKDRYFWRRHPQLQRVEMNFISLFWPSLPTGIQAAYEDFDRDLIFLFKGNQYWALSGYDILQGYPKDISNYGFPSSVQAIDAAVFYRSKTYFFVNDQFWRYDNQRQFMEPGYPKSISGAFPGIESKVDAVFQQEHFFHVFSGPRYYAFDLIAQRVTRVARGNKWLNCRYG
Protocol: as §1
as §2, with “(29” for “(5”, “MMP-8” for “MMP-2”, “#444229)” for “#444213)”, “(MOCAc-Pro-Leu-Gly-Leu-A2pr(Dnp)-Ala-Arg-NH2,” for “(MOCAc((7-methoxycoumarin-4-yl)acetyl)-Pro-Leu-Gly-Leu-A2pr(Dnp)-Ala-Arg-NH2,”
as §3

human MMP-13 = human MMP-13 (Homo sapiens (Human), UniProt P45452); test: MMP-13 inhibition test; details: read-out: MMPs IC50 MMP-13
Protocol: as §1
90 μL (18 ng) of human MMP-13 (Calbiochem # CC068) or 90 μL (130 ng) of human MMP-13 (Calbiochem #444287) was mixed with 10 μL of 10 mM APMA, and activated by reacting at 37° C. for 1 hour. 10 μL of the resultant enzyme solution was diluted to 90 μL with an assay buffer A. The mixture was added to 90 μL of a 20 μM fluorescent substrate (Dnp-Pro-Cha-Gly-Cys(Me)-His-Ala-Lys(Nma)-NH2) (SEQ ID NO: 2) prepared with an assay buffer B, and reacted at 37° C. for 4 hours. Enzyme activity was then determined by measuring with a fluorescence intensity meter (Labsystems, Fluoroskan Ascent) at an excitation wavelength of 355 nm and a measurement wavelength of 460 nm.
as §3

human MMP-17 = human MMP-17 (Homo sapiens, UniProt Q9ULZ9); test: MMP-17 inhibition test; details: read-out: MMPs IC50 MMP-17
human MMP-17, sequence (Q9ULZ9 126-565 limits assumed): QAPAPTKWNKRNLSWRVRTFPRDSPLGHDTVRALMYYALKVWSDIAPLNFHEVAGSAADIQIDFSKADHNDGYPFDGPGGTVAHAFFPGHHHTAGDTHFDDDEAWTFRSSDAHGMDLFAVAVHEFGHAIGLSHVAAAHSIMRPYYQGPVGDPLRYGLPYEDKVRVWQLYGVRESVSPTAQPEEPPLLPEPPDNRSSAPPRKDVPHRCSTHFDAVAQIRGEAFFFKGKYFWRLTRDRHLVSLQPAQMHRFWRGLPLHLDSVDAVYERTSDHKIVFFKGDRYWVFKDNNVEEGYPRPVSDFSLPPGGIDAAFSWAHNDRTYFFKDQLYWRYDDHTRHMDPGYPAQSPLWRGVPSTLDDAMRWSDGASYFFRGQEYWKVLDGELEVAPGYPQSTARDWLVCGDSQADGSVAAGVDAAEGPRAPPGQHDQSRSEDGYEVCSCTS
Protocol: as §1
90 μL (5.8 ng) of human MMP-17 (Calbiochem #475940) prepared with an assay buffer A was added to 90 μL of a 20 μM fluorescent substrate (MOCAc-Pro-Leu-Gly-Leu-A2pr(Dnp)-Ala-Arg-NH2, Peptide Institute Inc., #3163-v) (SEQ ID NO: 3) prepared with an assay buffer B, and reacted at room temperature for 5 hours. Enzyme activity was then determined by measuring with a fluorescence intensity meter (Labsystems, Fluoroskan Ascent) at an excitation wavelength of 320 nm and a measurement wavelength of 405 nm.
as §3

TACE, sequence (P78536 215-824): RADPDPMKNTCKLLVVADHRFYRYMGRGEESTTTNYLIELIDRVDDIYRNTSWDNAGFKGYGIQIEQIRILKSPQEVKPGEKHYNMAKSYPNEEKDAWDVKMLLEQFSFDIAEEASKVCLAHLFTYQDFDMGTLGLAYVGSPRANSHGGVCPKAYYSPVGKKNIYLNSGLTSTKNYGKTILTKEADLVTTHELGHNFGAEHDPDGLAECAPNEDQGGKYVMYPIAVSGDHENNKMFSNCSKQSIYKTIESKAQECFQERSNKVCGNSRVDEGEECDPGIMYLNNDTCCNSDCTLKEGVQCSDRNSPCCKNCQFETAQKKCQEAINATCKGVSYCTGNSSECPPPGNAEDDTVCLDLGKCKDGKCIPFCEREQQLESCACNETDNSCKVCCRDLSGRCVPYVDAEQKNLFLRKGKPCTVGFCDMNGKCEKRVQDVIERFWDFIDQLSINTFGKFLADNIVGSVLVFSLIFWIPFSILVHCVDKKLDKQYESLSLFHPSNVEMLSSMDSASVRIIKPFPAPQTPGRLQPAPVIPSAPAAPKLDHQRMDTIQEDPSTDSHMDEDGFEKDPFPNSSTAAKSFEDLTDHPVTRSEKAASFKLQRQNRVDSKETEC

| SMILES | IC50 (TACE) [µM] | IC50 (human MMP-2) [µM] | IC50 (human MMP-3) [µM] | IC50 (human MMP-8) [µM] | IC50 (human MMP-13) [µM] | IC50 (human MMP-17) [µM] |
| --- | --- | --- | --- | --- | --- | --- |
| Cc1cccn(CC2(c3ccccc3)NC(=O)NC2=O)c1=O (stereo not drawn) [Compound I-1, 5-[(3-methyl-2-oxopyridin-1(2H)-yl)methyl]-5-phenyl-imidazolidine-2,4-dione] | < 0.1 | > 100 | > 100 | 21 | 45 | > 100 |
| Cc1cccn(CC2(c3ccc(Oc4ccccc4)cc3)NC(=O)NC2=O)c1=O (stereo not drawn) [Compound I-9, 5-[(3-methyl-2-oxopyridin-1(2H)-yl)methyl]-5-(4-phenoxyphenyl)imidazolidine-2,4-dione] | < 0.1 | 29 | 74 | 14 | > 100 | 21 |
| Cc1cccn(CC2(c3ccc(F)c(F)c3)NC(=O)NC2=O)c1=O (stereo not drawn) [Compound I-10, 5-(3,4-difluorophenyl)-5-[(3-methyl-2-oxopyridin-1(2H)-yl)methyl] imidazolidine-2,4-dione] | < 0.1 | > 100 | > 100 | 19 | > 100 | > 100 |
| COc1ccc(Cl)cc1C1(Cn2cccc(C)c2=O)NC(=O)NC1=O (stereo not drawn) [Compound I-27, 5-(5-chloro-2-methoxyphenyl)-5-[(3-methyl-2-oxopyridin-1(2H)-yl)methyl]imidazolidine-2,4-dione] | < 0.1 | 62 | 49 | 16 | > 100 | 57 |
| Cc1cccn(CC2(c3ccc(Cc4ccccc4)cc3)NC(=O)NC2=O)c1=O (stereo not drawn) [Compound I-40, 5-(4-benzylphenyl)-5-[(3-methyl-2-oxopyridin-1(2H)-yl)methyl]imidazolidine-2,4-dione] | < 0.1 | > 100 | > 100 | 16 | > 100 | 30 |
| Cc1cccn(CC2(c3ccc(Cc4ccc(F)cc4)cc3)NC(=O)NC2=O)c1=O (stereo not drawn) [Compound I-41, 5-[4-(4-fluorobenzyl)phenyl]-5-[(3-methyl-2-oxopyridin-1(2H)-yl)methyl] imidazolidine-2,4-dione] | < 0.1 | 69 | > 100 | > 10 | > 100 | 16 |
| Cc1cccn(CC2(c3cccc(-c4cccnc4)c3)NC(=O)NC2=O)c1=O (stereo not drawn) [Compound I-62] | < 0.1 | 31 | 39 | 5 | > 100 | 45 |
| Cc1cccn(CC2(c3ccc(OCc4ccccc4)cc3)NC(=O)NC2=O)c1=O (stereo not drawn) [Compound I-64] | < 0.1 | > 10 | > 100 | 6.2 | > 100 | > 100 |
| Cc1cccn(CC2(c3ccc(Oc4ccccc4F)cc3)NC(=O)NC2=O)c1=O (stereo not drawn) [Compound I-86] | < 0.1 | 51 | > 100 | 18 | > 100 | 27 |
